In patent US20230416227A1, “PLASMA KALLIKREIN INHIBITORS” (Merck Sharp & Dohme LLC, priority 2020, published 2023):

Assays:
human factor XIa = human factor XIa (Homo sapiens, UniProt P03951); experiment: Factor XIa Assay; assay type: biochemical; settings: human factor XIa 0.04 nM, substrate GPR-AFC, 30 min pre-incubation at 25° C., pH 7.4; read-out: FXIa IC50
Human plasma kallikrein = target: T1, Human plasma kallikrein (Homo sapiens, UniProt P03952); experiment: Plasma Kallikrein Assay; assay type: biochemical; settings: purified Human plasma kallikrein 0.5 nM, substrate Acetyl-K-P-R-AFC, pH 7.4
T1 construct: yields a heavy chain (371 amino acids) and a light chain (248 amino acids); purchased Enzyme Research Laboratories
T1 sequence (P03952 391-638 limits assumed): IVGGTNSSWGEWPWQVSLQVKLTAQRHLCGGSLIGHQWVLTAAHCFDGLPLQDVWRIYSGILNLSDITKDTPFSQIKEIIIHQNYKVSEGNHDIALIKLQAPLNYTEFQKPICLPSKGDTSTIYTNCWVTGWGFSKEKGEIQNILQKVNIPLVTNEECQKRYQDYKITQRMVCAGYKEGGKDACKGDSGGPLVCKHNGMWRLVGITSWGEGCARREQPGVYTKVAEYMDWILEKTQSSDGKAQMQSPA
T1 sequence (P03952 20-390 partner limits assumed): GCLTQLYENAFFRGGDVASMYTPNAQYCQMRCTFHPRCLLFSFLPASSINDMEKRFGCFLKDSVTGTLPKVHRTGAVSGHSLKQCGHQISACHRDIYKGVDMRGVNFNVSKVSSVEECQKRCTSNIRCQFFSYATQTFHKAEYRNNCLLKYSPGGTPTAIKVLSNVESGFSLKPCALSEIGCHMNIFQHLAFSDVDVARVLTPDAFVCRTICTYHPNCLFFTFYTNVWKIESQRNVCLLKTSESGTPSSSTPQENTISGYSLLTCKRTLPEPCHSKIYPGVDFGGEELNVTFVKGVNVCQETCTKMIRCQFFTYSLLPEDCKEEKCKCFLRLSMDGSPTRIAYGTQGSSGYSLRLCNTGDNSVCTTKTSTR

Chain of human factor XIa (P03951 388-625 limits assumed): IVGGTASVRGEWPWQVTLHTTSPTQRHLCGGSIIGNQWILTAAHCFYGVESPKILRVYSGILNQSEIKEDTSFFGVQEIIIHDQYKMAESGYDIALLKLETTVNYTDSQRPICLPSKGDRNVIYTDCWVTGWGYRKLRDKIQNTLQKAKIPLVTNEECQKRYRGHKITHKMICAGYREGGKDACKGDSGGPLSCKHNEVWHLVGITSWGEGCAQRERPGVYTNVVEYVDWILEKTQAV
Chain of human factor XIa (P03951 19-387 partner limits assumed): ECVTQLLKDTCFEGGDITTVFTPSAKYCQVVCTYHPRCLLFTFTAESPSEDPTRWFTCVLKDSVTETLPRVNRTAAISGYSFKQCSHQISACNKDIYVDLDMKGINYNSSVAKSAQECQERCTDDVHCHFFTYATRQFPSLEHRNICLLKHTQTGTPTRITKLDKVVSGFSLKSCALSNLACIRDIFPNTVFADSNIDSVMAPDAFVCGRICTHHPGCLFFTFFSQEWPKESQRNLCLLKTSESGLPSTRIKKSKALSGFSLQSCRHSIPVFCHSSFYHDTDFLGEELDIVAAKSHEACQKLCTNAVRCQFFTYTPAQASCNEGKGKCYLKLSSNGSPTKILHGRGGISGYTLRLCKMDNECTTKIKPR

Row | Structure (SMILES) | IC50 (human factor XIa) | IC50 (Human plasma kallikrein)
1 | O=C(Nc1cnn(Cc2ccc(N3CCC3)nc2)c1)c1cncc(-c2c(OC(F)F)ccc(Cl)c2F)n1 [Example 63, N-(1-((6-(Azetidin-1-yl)pyridin-3-yl)methyl)-1H-pyrazol-4-yl)-6-(3-chloro-6-(difluoromethoxy)-2-fluorophenyl)pyrazine-2-carboxamide] | 5040 nM | 17.3 nM
2 | CC(c1cnc(N2CC(F)(F)C2)nc1)n1cc(NC(=O)c2cncc(-c3c(C(F)F)ccc(Cl)c3F)n2)cn1 (stereo not drawn) [Example 82, 6-(3-Chloro-6-(difluoromethyl)-2-fluorophenyl)-N-(1-(1-(2-(3,3-difluoroazetidin-1-yl)pyrimidin-5-yl)ethyl)-1H-pyrazol-4-yl)pyrazine-2-carboxamide] | 6010 nM | 9.3 nM
3 | CC(c1cnc(N2Cc3cccnc3C2)nc1)n1cc(NC(=O)c2cncc(-c3c(C(F)F)ccc(Cl)c3F)n2)cn1 (stereo not drawn) [Example 83, 6-(3-Chloro-6-(difluoromethyl)-2-fluorophenyl)-N-(1-(1-(2-(5,7-dihydro-6H-pyrrolo[3,4-b]pyridin-6-yl)pyrimidin-5-yl)ethyl)-1H-pyrazol-4-yl)pyrazine-2-carboxamide] | 8080 nM | 9.4 nM
4 | C[C@H](O)[C@H]1[C@H]2C[C@H]2CN1c1ncc(Cn2cc(NC(=O)c3cncc(-c4c(C(F)F)ccc(Cl)c4F)n3)cn2)cn1 [Example 84, 6-(3-Chloro-6-(difluoromethyl)-2-fluorophenyl)-N-(1-((2-((1S,2R,5R)-2-((S)-1-hydroxyethyl)-3-azabicyclo[3.1.0]hexan-3-yl)pyrimidin-5-yl)methyl)-1H-pyrazol-4-yl)pyrazine-2-carboxamide] | 7240 nM | 11.3 nM
5 | C[C@@H](O)[C@H]1[C@H]2C[C@H]2CN1c1ncc(Cn2cc(NC(=O)c3cncc(-c4c(C(F)F)ccc(Cl)c4F)n3)cn2)cn1 [Example 87, 6-(3-Chloro-6-(difluoromethyl)-2-fluorophenyl)-N-(1-((2-((1S,2R,5R)-2-((R)-1-hydroxyethyl)-3-azabicyclo[3.1.0]hexan-3-yl)pyrimidin-5-yl)methyl)-1H-pyrazol-4-yl)pyrazine-2-carboxamide] | 8430 nM | 13.6 nM

Now those with a lower IC50 (human factor XIa), led by results:

Row | IC50 (human factor XIa) | IC50 (Human plasma kallikrein) | Structure (SMILES)
6 | 292 nM | 9.6 nM | O=C(Nc1cnn(Cc2cnc(N3CCC3)nc2)c1)c1cncc(-c2c(OC(F)F)ccc(Cl)c2F)n1 [Example 64, N-(1-((2-(Azetidin-1-yl)pyrimidin-5-yl)methyl)-1H-pyrazol-4-yl)-6-(3-chloro-6-(difluoromethoxy)-2-fluorophenyl)pyrazine-2-carboxamide]
7 | 1490 nM | 3.7 nM | O=C(Nc1cnn(Cc2cnc(N3C[C@H]4C[C@H]4[C@H]3CO)nc2)c1)c1cncc(-c2c(C(F)F)ccc(Cl)c2F)n1 [Example 73, 6-(3-Chloro-6-(difluoromethyl)-2-fluorophenyl)-N-(1-((2-((1R,2S,5S)-2-(hydroxymethyl)-3-azabicyclo[3.1.0]hexan-3-yl)pyrimidin-5-yl)methyl)-1H-pyrazol-4-yl)pyrazine-2-carboxamide]
8 | 1990 nM | 6.7 nM | O=C(Nc1cnn(Cc2cnc(N3CC4CC4C3)nc2)c1)c1cncc(-c2c(C(F)F)ccc(Cl)c2F)n1 (stereo not drawn) [Example 80, N-(1-((2-(3-Azabicyclo[3.1.0]hexan-3-yl)pyrimidin-5-yl)methyl)-1H-pyrazol-4-yl)-6-(3-chloro-6-(difluoromethyl)-2-fluorophenyl)pyrazine-2-carboxamide]
9 | 3940 nM | 7.4 nM | NCC1CCCN1c1ncc(Cn2cc(NC(=O)c3cncc(-c4c(C(F)F)ccc(Cl)c4F)n3)cn2)cn1 (stereo not drawn) [Example 81, N-(1-((2-(2-(Aminomethyl)pyrrolidin-1-yl)pyrimidin-5-yl)methyl)-1H-pyrazol-4-yl)-6-(3-chloro-6-(difluoromethyl)-2-fluorophenyl)pyrazine-2-carboxamide]
